The values below come from PubChem BioAssay (NCI).

SMILES strings stand for the structures.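 Protocol summary: plate cells (96-well), add compound at 5 concentrations, incubate 48 h, interpolate endpoints linearly. GI50 is the concentration that inhibits growth by half. TGI: concentration producing complete growth inhibition.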

What all share (assay): NCI-60 cell line screen, 48 h
For assay [1], the system named is ACHN renal.
For assay [2], the system named is EKVX NSCLC.
The test system of assay [3] is HOP-62 NSCLC.
For assay [4], the system named is K-562 leukemia.
Assay [5] concerns OVCAR-4 ovarian.
Assay [6] relates to RXF 393 renal.
The subject of assay [7] is SF-295 CNS.
Assay [8] relates to SK-MEL-28 melanoma.
The subject of assay [9] is SK-OV-3 ovarian.
The test system of assay [10] is SN12C renal.

Take `CCOC(=O)C(=Cc1cccc(Cl)c1)C(=O)OCC`: the GI50 in assay [1] is 1.89 µM; in assay [2] it was 3.75 µM; in assay [3], 2.69 µM; in assay [4], 3.18 µM; in assay [5] it was 2.66 µM; in [6], 1.91 µM. The GI50 was 3.61 µM in assay [7], 1.62 µM in [8], 10.6 µM in assay [9] and 1.65 µM in [10]. The TGI in [1] was 4.23 µM; in assay [2] it was 14.3 µM; in assay [3], 7.58 µM; in assay [4], > 100 µM; in [5] it was 8.87 µM; in [6] it was 3.53 µM. Moreover, the TGI was 13.4 µM in assay [7], 3.26 µM in assay [8], 22.4 µM in assay [9] and 3.54 µM in assay [10].

With `C[C@H]1NC(=O)C2CCCCN2C(=O)CN(C)C(=O)CNC(=O)C2CCCCN2C(=O)[C@@H](NC(=O)c2nc3ccccc3cc2O)[C@@H](C)NC(=O)C2CCCCN2C(=O)CN(C)C(=O)CNC(=O)[C@@H]2CCCCN2C(=O)C1NC(=O)c1nc2ccccc2cc1O` (stereo not given in full), the TGI in [2] was 23.2 µM; in [3], 0.66 µM; in assay [4] it was 1.1 µM; in assay [5], 5.48 µM; in assay [6] it was 0.199 µM; in [7], 4.8 µM. The TGI in [8] is 0.465 µM; in [9], > 100 µM; in assay [10] it was > 100 µM.

`O=C(c1ccc(Cl)cc1)c1cnc(Nc2ccccc2Cl)s1`: the TGI is 35.3 µM in assay [1]; 50.5 µM in assay [2]; 54 µM in assay [3]; > 100 µM in [4]; 98.2 µM in [5]; 42.8 µM in [6]. Moreover, the TGI in assay [7] was found to be 44.3 µM; in [8] it was 23.4 µM; in assay [9] it was 52 µM; in assay [10] it was 52.1 µM.

Consider `CCOC(=O)C1(c2ccccc2)CCC(=O)CC1`, for which the TGI in [1], in assay [2], in [3], in [4], in assay [5] and in assay [6] was > 100 µM throughout. The TGI in assay [7], in assay [8], in assay [9] and in assay [10] was > 100 µM each time.

For the compound `Cc1csc(Nc2nc(-c3cccc(Br)c3)nc(C(Cl)(Cl)Cl)n2)n1`, the GI50 in assay [1] is 0.475 µM; in assay [2], 1.61 µM; in assay [3] it was 2.21 µM; in assay [4], > 24.9 µM; in assay [5], > 100 µM; in [6], 1 µM. Further, the figures for the GI50 in assay [7], in [8] and in assay [9] were 2.17 µM, 3.48 µM and > 100 µM, respectively. Further, the TGI is 2.97 µM in assay [1]; 5.35 µM in [2]; > 28.7 µM in assay [3]; > 100 µM in assay [4]; > 100 µM in assay [5]; 4.04 µM in assay [6]. The TGI in assay [7], in [8] and in assay [9] was > 100 µM each time.

For the compound `Cc1[nH]c2ccccc2c1-c1cc(-c2cc(-c3c(C)[nH]c4ccccc34)on2)no1`, the TGI in assay [1], in assay [2], in assay [3], in assay [4], in [5] and in assay [6] was > 100 µM throughout. Moreover, the TGI in [7], in assay [8], in assay [9] and in assay [10] was > 100 µM each time.

`C=CCc1cccc(/C=N/NC(=O)CN2CCN(Cc3ccccc3)CC2)c1O`: the GI50 was 1.54 µM in [1]; 2.49 µM in [2]; 2.25 µM in [3]; 1.87 µM in assay [4]; 1.45 µM in assay [5]; 0.638 µM in assay [6]. Besides, the GI50 in assay [7] is 0.649 µM; in [8], 2.43 µM; in assay [9], 2.88 µM; in assay [10] it was 4.4 µM. In addition, the TGI in [1] came out at 12 µM; in assay [2], 12.8 µM; in assay [3] it was 13.8 µM; in [4], 11 µM; in assay [5], 11.8 µM; in assay [6] it was 16.1 µM. Also, the TGI was 4.04 µM in assay [7], 15.5 µM in assay [8], 17.8 µM in assay [9] and 18.9 µM in assay [10].

Consider `CC(=O)n1c2c(c(=O)n1-c1ccccc1)S(=O)CCC2` (stereo not given), for which the TGI is > 100 µM in assay [1]; > 100 µM in assay [2]; 28.2 µM in assay [3]; > 100 µM in assay [4]; 44.4 µM in assay [5]; > 68.4 µM in assay [6]. For the same compound, the TGI in [7], in assay [8], in assay [9] and in assay [10] was > 100 µM in each case.

With `CCCCCCC[CH2][Sn]1([CH2]CCCCCCC)[O]C(=O)c2cccnc2[S]1`, the GI50 in assay [1], in assay [2], in assay [3], in assay [4], in assay [5] and in assay [6] was > 100 µM each time. Also, the GI50 in assay [7], in assay [8], in assay [9] and in [10] was > 100 µM in each case. Moreover, the TGI in [1], in [2], in assay [3], in [4], in [5] and in assay [6] was > 100 µM throughout. The TGI in [7], in assay [8], in assay [9] and in assay [10] was > 100 µM throughout.

Take `CCN(CC)c1nc(-c2ccc(Cl)cc2Cl)nc2ccccc12`: the GI50 in assay [1] was 15.8 µM; in assay [2] it was 0.333 µM; in assay [3], 17.3 µM; in [4] it was 30.8 µM; in assay [5], 51.6 µM; in assay [6], 17.2 µM. For the same compound, the GI50 in assay [7] is 22.8 µM; in [8], 31.8 µM; in assay [9] it was 26.5 µM; in [10], 17.2 µM. In addition, the TGI in assay [1] was 50.4 µM; in assay [2], 5.05 µM; in assay [3] it was 35.6 µM; in [4] it was > 100 µM; in assay [5], > 100 µM; in [6], 42.5 µM. The TGI in [7] is 62.4 µM; in [8], > 100 µM; in assay [9], > 79.9 µM; in [10], 46.2 µM.

On to `CC(C)=CCc1cc(O)cc2c1OC(C=C(C)C)C1=C2C(=O)C2=C(NCCS2(=O)=O)C1=O` (stereo not given), for which the GI50 was 3.18 µM in [1]; 2.73 µM in assay [2]; 3.01 µM in assay [3]; 3.07 µM in assay [4]; 0.811 µM in assay [5]; 2.15 µM in [6]. The values for the GI50 in assay [8], in assay [9] and in assay [10] were 2.39 µM, 3.8 µM and 0.414 µM, respectively. Also, the TGI in assay [1] was found to be 10.6 µM; in assay [2], 9.57 µM; in assay [3], 5.94 µM; in assay [4], 14.6 µM; in [5], 3.06 µM; in [6], 4.7 µM. The TGI in assay [8] amounted to 5.13 µM; in assay [9], 10.4 µM; in [10], 2.02 µM.

Take `COc1ccc(-c2cc(-c3ccccc3)c(C#N)c(=O)n2C2OC(CO)C(O)C(O)C2O)cc1` (stereo not given): the TGI in assay [1], in assay [2], in [3], in assay [4], in [5] and in [6] was > 100 µM in each case. Also, the TGI in assay [7], in [8], in assay [9] and in [10] was > 100 µM throughout.

Take `COc1ccc(NC(=O)/C(N=O)=C(/C)O)cc1`: the TGI in assay [1], in [2], in assay [3], in [4], in assay [6] and in assay [7] was > 100 µM throughout. Further, the TGI in assay [8], in assay [9] and in assay [10] was > 100 µM throughout.

`O=C(Nc1cc(Cl)ccc1Cl)c1cc2cccc(Cl)c2oc1=O`: the TGI in [1], in assay [2], in assay [3], in assay [4], in [6] and in assay [7] was > 100 µM throughout. The TGI in assay [8], in assay [9] and in assay [10] was > 100 µM in each case.

Take `C1CSCCSCCS1`: the TGI in [2], in [3], in assay [4], in assay [5], in [6] and in [7] was > 100 µM throughout. Besides, the TGI in [8], in assay [9] and in assay [10] was > 100 µM each time.

As to `COC12C=C/C(=C(/C(=O)OCc3ccncc3)C(=O)CCCCCCCCC3(OC)C=C/C(=C(/C(=O)OCc4ccncc4)C(=O)CCCCCCCC1)O3)O2`, the GI50 in assay [1] is 0.217 µM; in assay [2], 1.21 µM; in assay [3], 1.18 µM; in [5], 0.583 µM; in assay [6], 0.277 µM; in assay [7], 0.899 µM. In addition, the values for the GI50 in assay [8], in assay [9] and in [10] were 0.29 µM, 2.03 µM and 0.471 µM, respectively. In addition, the TGI in assay [1] stood at 1.14 µM; in [2], 5.1 µM; in [3] it was 5.59 µM; in [5] it was 3.41 µM; in assay [6], 0.896 µM; in assay [7] it was 3.29 µM. Besides, the TGI in assay [8] was found to be 1.79 µM; in [9], 9.02 µM; in assay [10], 3.89 µM.

Take `CC1=CC(=O)[C@@H](O)[C@]2(C)[C@H]3[C@@]4(O)OC[C@]35[C@H]([C@@H](C)[C@H]4O)[C@@H](O)C(=O)O[C@@H]5C[C@@H]12`: the TGI in assay [1] was 5.4 µM; in assay [2], 6.31 µM; in [3] it was 1.08 µM; in assay [4] it was > 100 µM; in [5], 6.66 µM; in [6], 4.46 µM. Also, the TGI was 3.7 µM in assay [7], 0.691 µM in [8] and > 20.5 µM in assay [9].

Turning to `CCOC(=O)C(C)(C)Oc1ccc2c(C)c(-c3ccc(Cl)cc3)c(=O)oc2c1`, the TGI in assay [1], in [2], in [3], in [4], in assay [5] and in [6] was > 100 µM throughout. For the same compound, the TGI in assay [7], in [8] and in assay [10] was > 100 µM in each case.

Turning to `O=c1n(-c2ccccc2)c(=O)n2n1C1C=CC2C2C(C1)C2(Cl)Cl` (stereo not given), the TGI in [1], in assay [2], in assay [3], in assay [4], in assay [5] and in assay [6] was > 100 µM in each case. The TGI in assay [7], in assay [9] and in [10] was > 100 µM each time.

With `C=CC(=O)N1CCC(C2CCNc3c(C(N)=O)c(-c4ccc(Oc5ccccc5)cc4)nn32)CC1` (stereo not given), the GI50 in assay [1] was 2.32 µM; in [2] it was 3.49 µM; in assay [3], 19.5 µM; in assay [5], 6.25 µM; in assay [6] it was 9.22 µM; in [7], 17.9 µM. In addition, the results for the GI50 in [8], in assay [9] and in assay [10] were 18.7 µM, 0.572 µM and 13.4 µM, respectively. Besides, the TGI was determined as 23.6 µM in assay [1]; 42 µM in [2]; 67.7 µM in assay [3]; 95.4 µM in assay [5]; 26.6 µM in [6]; 70 µM in assay [7]. The TGI in assay [8] is 45.1 µM; in assay [9], 5.33 µM; in assay [10] it was > 100 µM.
